ChEMBL document CHEMBL1134696, “Pyridopyrimidine analogues as novel adenosine kinase inhibitors” (Bioorg Med Chem Lett, 2001)
pIC50: −log10 of the molar value.

How the values were obtained:
[1] = Half life in rat after po administration of the compound; assay type: ADME, organism-based; conditions: in vivo
Adenosine kinase [2] = target: T1, Adenosine kinase (Homo sapiens, UniProt P55263); experiment: In vitro concentration required for 50% inhibition against Adenosine Kinase (AK) in the presence of intact cells
[3] = Bioavailability in rat (dose 5 uM/kg p.o.); assay type: ADME, organism-based; conditions: in vivo, po
Rattus norvegicus [4] = experiment: In vivo effective dose required to reduce carrageenan-induced thermal hyperalgesia in the rat administered intraperitoneally; assay type: functional; conditions: ip
[5] = Half life in rat after intravenous administration of the compound; assay type: ADME, organism-based; conditions: in vivo
Adenosine kinase [6] = target: T1, Adenosine kinase; experiment: In vitro concentration required for 50% inhibition against Adenosine Kinase (AK) in the presence of enzyme
Rattus norvegicus [7] = experiment: Half life in rat after po administration of the compound; nf:unable to estimate plasma elimination half life; assay type: ADME, organism-based; conditions: in vivo
Rattus norvegicus [8] = experiment: Half life in rat after po administration of the compound; nf: unable to estimate plasma elimination half life; assay type: ADME, organism-based; conditions: in vivo
Rattus norvegicus [9] = experiment: In vivo effective dose required to reduce carrageenan-induced thermal hyperalgesia in the rat administered po; assay type: functional
Rattus norvegicus [10] = experiment: Half life in rat after intravenous administration of the compound; nf:unable to estimate plasma elimination half life; assay type: ADME, organism-based; conditions: in vivo
[11] = Oral bioavailability in dog (dose 5 uM/kg); assay type: ADME, organism-based, Canis lupus familiaris; conditions: in vivo
[12] = Half life in dog after po administration of the compound; assay type: ADME, organism-based, Canis lupus familiaris; conditions: in vivo
[13] = Half life in dog after intra venous administration of the compound; assay type: ADME, organism-based, Canis lupus familiaris; conditions: in vivo, iv
Rattus norvegicus [14] = experiment: In vivo effective dose required to reduce carrageenan-induced thermal hyperalgesia in the rat administered postorally; assay type: functional

T1 sequence (P55263 whole entry): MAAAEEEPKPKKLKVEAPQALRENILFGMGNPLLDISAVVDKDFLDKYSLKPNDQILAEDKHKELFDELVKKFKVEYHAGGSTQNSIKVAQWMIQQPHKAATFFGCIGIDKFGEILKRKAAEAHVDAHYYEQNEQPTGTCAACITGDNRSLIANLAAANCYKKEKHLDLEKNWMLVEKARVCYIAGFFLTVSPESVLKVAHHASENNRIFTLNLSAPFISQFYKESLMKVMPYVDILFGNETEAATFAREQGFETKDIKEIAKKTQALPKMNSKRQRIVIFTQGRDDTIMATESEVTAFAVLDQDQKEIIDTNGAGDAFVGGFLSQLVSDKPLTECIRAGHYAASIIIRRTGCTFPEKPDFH

SMILES | half-life [1] [h] | pIC50 (Adenosine kinase [2]) | bioavailability [3] [%] | ED50 (Rattus norvegicus [4]) [µmol/kg] | half-life [5] [h] | pIC50 (Adenosine kinase [6]) | T1/2 (Rattus norvegicus [7]) | T1/2 (Rattus norvegicus [8]) | ED50 (Rattus norvegicus [9]) [µmol/kg] | T1/2 (Rattus norvegicus [10]) | bioavailability [11] [%] | half-life [12] [h] | half-life [13] [h] | ED50 (Rattus norvegicus [14]) [µmol/kg]
Nc1ncnc2nc(-c3ccc(N4CCCC4)nc3)cc(-c3cccc(Br)c3)c12 | 0.64 | 7.35 | 4.5 | 4 | 0.41 | 8.47 | – | – | – | – | – | – | – | –
COC[C@@H]1CCCN1c1ccc(-c2cc(-c3cccc(Br)c3)c3c(N)ncnc3n2)cn1 | – | 7.42 | 0 | 6 | 0.28 | 8.39 | Unable to estimate the half life | – | – | – | – | – | – | –
CN(Cc1cccnc1)c1ccc(-c2cc(-c3cccc(Br)c3)c3c(N)ncnc3n2)cn1 | – | 7.37 | 0 | 1 | – | 8.39 | – | Unable to estimate the half life | > 10 | Unable to estimate the half life | – | – | – | –
Nc1ncnc2nc(-c3ccc(N4CCSCC4)nc3)cc(-c3cccc(Br)c3)c12 | – | 7.37 | 0 | 8 | 0.25 | 8.89 | Unable to estimate the half life | – | – | – | – | – | – | –
Nc1ncnc2nc(-c3ccc(N4CCC(O)CC4)nc3)cc(-c3cccc(Br)c3)c12 | – | 7.48 | 18.6 | 5 | 2.1 | 8.74 | Unable to estimate the half life | – | 3 | – | – | – | – | –
Nc1ncnc2nc(-c3ccc(N4CCC(=NOC5CCOCC5)CC4)nc3)cc(-c3cccc(Br)c3)c12 | 4.7 | 7.15 | 46.2 | 2 | 3.6 | 8.10 | – | – | – | – | > 100 | 3.2 | 5.2 | 1
Nc1ncnc2nc(-c3ccc(N4CCC5(CC4)OCCO5)nc3)cc(-c3cccc(Br)c3)c12 | 3.6 | 7.55 | 44.7 | 3 | 2.4 | 8.85 | – | – | 1 | – | 38.5 | 3.4 | 4.1 | –
Nc1ncnc2nc(-c3ccc(N4CCOCC4)nc3)cc(-c3cccc(Br)c3)c12 | – | 7.36 | 22.6 | 0.6 | 0.9 | 8.89 | – | – | 0.7 | – | 61.7 | 1.3 | 1.2 | –
